In general, IC50 refers to the concentration needed to halve the response being measured. Higher therefore signals lower potency.

This is an account of results in US20110117009A1, “DRUG CONJUGATES WITH POLYGLYCEROLS” (FREIE UNIVERSITÄT BERLIN, priority 2008, published 2011).

Marks after values point to notes of the source that are not given here.

The test system of one series is AsPC1 LN. Briefly: Cytotoxicity, luciferase readout after 72 h. It counts as cell-based. The settings on record: Homo sapiens. The procedure:
After 72 h cells were lysed in 100 μL of luciferase assay buffer, and an aliquot of the lysate was assayed for luciferase activity.

Series [1] concerns human ovarian cancer xenografts (A2780). Kind of series: In vivo efficacy in the ovarian carcinoma A2780 xenograft model. The settings on record: doxorubicin 2×8 mg/kg, conjugates 3×24 mg/kg doxorubicin equivalents. The arrangement: species or system female NMRI: nu/nu mice. The procedure: The mice were held in individually ventilaged cages (IVC) under sterile and standardized environmental conditions (25±2° C. room temperature, 50±10% relative humidity, 12 hour light-dark-rhythm). They received autoclaved food and bedding (ssniff, Soest, Germany) and acidified (pH 4.0) drinking water ad libitum. […] Mice were randomly distributed to the experimental groups (8 mice per group). When the tumors were grown to a palpable size, treatment was initiated.
Tumor size was measured twice weekly with a caliper-like instrument in two dimensions. Individual tumor volumes (V) were calculated by the formula V=(length×[width]^2)/2 and related to the values on the first day of treatment (relative tumor volume, RTV). Statistical analysis was performed with the U-test (Mann and Whitney) with p<0.05. The body weight of mice was determined every 3 to 4 days.

The nature of series [2]: Tolerability (mortality, body weight change) in the A2780 xenograft study. The settings on record: i.v. weekly, doxorubicin 2×8 mg/kg, conjugates 3×24 mg/kg doxorubicin equivalents. It counts as in vivo, female NMRI: nu/nu mice. The procedure: In vivo efficacy studies were carried out with compounds 1-A, 1-B, and 1-C and doxorubicin in the ovarian carcinoma A2780 xenograft model. For the in vivo testing, female NMRI: nu/nu mice (Taconic, Denmark) were used. The mice were held in individually ventilaged cages (IVC) under sterile and standardized environmental conditions (25±2° C. room temperature, 50±10% relative humidity, 12 hour light-dark-rhythm). They received autoclaved food and bedding (ssniff, Soest, Germany) and acidified (pH 4.0) drinking water ad libitum. A2780 tumor fragments were transplanted subcutaneously (s.c.) into the left flank region of anaesthetized (40 mg/kg i.p. Radenarkon, Asta Medica, Frankfurt, Germany) mice on day zero. […]
Tumor size was measured twice weekly with a caliper-like instrument in two dimensions. Individual tumor volumes (V) were calculated by the formula V=(length×[width]^2)/2 and related to the values on the first day of treatment (relative tumor volume, RTV). […] The body weight of mice was determined every 3 to 4 days.
The standard and maximum tolerated dose of doxorubicin (2×8 mg/kg) was compared to compounds 1-A, 1-B, and 1-C at 3×24 mg/kg (doxorubicin equivalents). […] J. Drug Targeting, 8: 305-318, 2000; Trail et al.: Antigen-specific activity of carcinoma-reactive BR64-doxorubicin conjugates evaluated in vitro and in human tumor xenograft models. […]

The conditions of series [3]: nude mice models, e.g. 2×12 mg/kg; cited from earlier work.

As to `COc1cccc2c1C(=O)c1c(O)c3c(c(O)c1C2=O)C[C@@](O)(C(=O)CO)C[C@@H]3O[C@H]1C[C@H](N)[C@H](O)[C@H](C)O1` [Doxorubicin, doxorubicin], the IC50 in the series with AsPC1 LN was found to be 360 nM. Also, the “antitumor efficacy (in words)” value in series [1] (A2780 xenografts) is reported as “moderate antitumor efficacy”. Also, the “optimum T/C RTV” value in series [1] (i.v. weekly, relative tumor volume treated versus control) is recorded as 15* %. Moreover, the toxic death in series [2] (8 mice per group) is listed as 0. In addition, the “BWC (body weight change)” value in series [2] (day in brackets) is −21 (d26) %. In addition, the “toxicity at higher doses” value in series [3] is “unacceptable toxicity and mortality”.
